# Data as given in US20230173018A1, “CASPOFUNGIN DERIVATIVES AND ASSAYS FOR EVALUATING ANTIFUNGAL TREATMENT EFFICACY” (priority 2020, published 2023).
# Tests used:
# Assay type in all cases: cell-based
# C. albicans CG72 = assay: microbe, parasite or virus in culture; details: strain no. 7, CG72, parental CAM, pKE1:GFP-YPT72
# Description: (§1) The antifungal activities of compounds 1a, 1 and 2 (collectively: caspofungin derivatives) were compared to that of caspofungin and CSF-BOD using a panel of 49 C. albicans and C. glabrata strains (Tables 1 and 2). The panel included ATCC strains and clinical isolates as well a collection of caspofungin-responsive strains and their corresponding isogenic caspofungin-resistant derivatives, constructed by introducing point mutations within and near the defined hotspots in the FKS1 and/or FKS2 genes of the GS complex. Minimal inhibitory concentration (MIC) values for all strains were determined using the broth double dilution method and are summarized in FIG. 2 and Table 2. […] The clinical breakpoints (threshold) for caspofungin-resistance in C. albicans and C. glabrata are 1 μg/mL and 0.5 μg/mL, respectively.
# [1] = tested on: C. albicans DPL1015 (DP-A15); assay: microbe, parasite or virus in culture; details: strain no. 2, DPL1015 (DP-A15), parental SC5314, FKS1 mutant HS1-S645S/P
# Description: as §1
# [2] = tested on: C. albicans DPL1016 (DP-A15-10); assay: microbe, parasite or virus in culture; details: strain no. 3, DPL1016 (DP-A15-10), parental SC5314, FKS1 mutant HS1-S645P
# Description: as §1
# C. albicans SN95 = assay: microbe, parasite or virus in culture; details: strain no. 8, SN95, parental RM1000
# Description: as §1
# [3] = tested on: C. albicans T-2068 (DP-C42); assay: microbe, parasite or virus in culture; details: strain no. 4, T-2068 (DP-C42), parental SC5314, FKS1 HS1-F641S mutation
# Description: as §1
# [4] = tested on: C. albicans T-2069 (DP-85); assay: microbe, parasite or virus in culture; details: strain no. 14, T-2069 (DP-85), clinical isolate, FKS1 HS1-S645F mutation
# Description: as §1
# [5] = tested on: C. albicans T-2074 (DP-122); assay: microbe, parasite or virus in culture; details: strain no. 12, T-2074 (DP-122), clinical isolate, FKS1 HS1-P649H mutation
# Description: as §1
# [6] = tested on: C. albicans T-2076 (DP-194); assay: microbe, parasite or virus in culture; details: strain no. 13, T-2076 (DP-194), clinical isolate, FKS1 HS1-S645F, HS2-R1361R/H mutation
# Description: as §1
# [7] = tested on: C. albicans T-2077 (DP-205); assay: microbe, parasite or virus in culture; details: strain no. 15, T-2077 (DP-205), clinical isolate, FKS1 HS1-S645P mutation
# Description: as §1
# C. glabrata CST78 = assay: microbe, parasite or virus in culture; details: strain no. 26, C. glabrata CST78
# Description: as §1
# C. glabrata DPL1086 = assay: microbe, parasite or virus in culture; details: strain no. 17, DPL1086, parental ATCC 90030, FKS1 mutant HS1-S629P
# Description: as §1
# [8] = tested on: C. glabrata T-985 (11-076); assay: microbe, parasite or virus in culture; details: strain no. 49, T-985 (11-076), clinical isolate
# Description: as §1
# C. glabrata TGL00054 = assay: microbe, parasite or virus in culture; details: strain no. 19, TGL00054, parental CST109, FKS2 mutant
# Description: as §1
# C. glabrata TGL00056 = assay: microbe, parasite or virus in culture; details: strain no. 22, TGL00056, parental CST34, FKS mutant
# Description: as §1
# C. glabrata TGL00065 = assay: microbe, parasite or virus in culture; details: strain no. 27, TGL00065, FKS mutant
# Description: as §1
# C. glabrata TGL00091 = assay: microbe, parasite or virus in culture; details: strain no. 35, TGL00091, FKS mutant
# Description: as §1
# C. glabrata TGL00107 = assay: microbe, parasite or virus in culture; details: strain no. 23, TGL00107, parental CST34, FKS mutant
# Description: as §1
# C. glabrata TGL00253 = assay: microbe, parasite or virus in culture; details: strain no. 20, TGL00253, parental CST109, FKS2 mutant
# Description: as §1
# C. glabrata TGL00256 = assay: microbe, parasite or virus in culture; details: strain no. 24, TGL00256, parental CST34, FKS mutant
# Description: as §1
# C. glabrata TGL00258 = assay: microbe, parasite or virus in culture; details: strain no. 25, TGL00258, parental CST34, FKS mutant
# Description: as §1
# C. glabrata TGL00263 = assay: microbe, parasite or virus in culture; details: strain no. 28, TGL00263, parental CST78, FKS mutant
# Description: as §1
# C. glabrata TGL00264 = assay: microbe, parasite or virus in culture; details: strain no. 29, TGL00264, parental CST78, FKS mutant
# Description: as §1
# C. glabrata TGL00265 = assay: microbe, parasite or virus in culture; details: strain no. 30, TGL00265, parental CST78, FKS mutant
# Description: as §1
# C. glabrata TGL00275 = assay: microbe, parasite or virus in culture; details: strain no. 32, TGL00275, FKS mutant
# Description: as §1
# C. glabrata TGL00277 = assay: microbe, parasite or virus in culture; details: strain no. 33, TGL00277, parental EF1620, FKS mutant
# Description: as §1
# C. glabrata TGL00291 = assay: microbe, parasite or virus in culture; details: strain no. 36, TGL00291, parental BG2, FKS mutant
# Description: as §1
# C. glabrata TGL00293 = assay: microbe, parasite or virus in culture; details: strain no. 37, TGL00293, parental BG2, FKS mutant
# Description: as §1
# C. glabrata TGL00294 = assay: microbe, parasite or virus in culture; details: strain no. 38, TGL00294, parental BG2, FKS mutant
# Description: as §1
# C. albicans ATCC 10231 = assay: MIC, broth double dilution; details: strain no. 11, C. albicans ATCC 10231
# Description: as §1
# C. albicans BWP17 = assay: MIC, broth double dilution; details: strain no. 9, BWP17, parental RM1000
# Description: as §1
# C. albicans SN152 = assay: MIC, broth double dilution; details: strain no. 5, C. albicans SN152
# Description: as §1
# C. glabrata ATCC 15126 = assay: MIC, broth double dilution; details: strain no. 41, C. glabrata ATCC 15126
# Description: as §1
# [9] = tested on: C. glabrata T-190 (11-304); assay: MIC, broth double dilution; details: strain no. 42, T-190 (11-304), clinical isolate
# Description: as §1
# [10] = tested on: C. glabrata T-982 (11-181); assay: MIC, broth double dilution; details: strain no. 46, T-982 (11-181), clinical isolate
# Description: as §1
smiles,measurement,setting,value
CC[C@H](C)C[C@H](C)CCCCCCCCC(=O)N[C@H]1C[C@@H](O)[C@@H](NCCNC(=O)CCc2ccc3n2[B-](F)(F)[N+]2=C(C)C=C(C)C2=C3)NC(=O)[C@@H]2[C@@H](O)CCN2C(=O)[C@H]([C@H](O)CCN)NC(=O)[C@H]([C@H](O)[C@@H](O)c2ccc(O)cc2)NC(=O)[C@@H]2C[C@@H](O)CN2C(=O)[C@H]([C@@H](C)O)NC1=O [CSF-BOD],MIC,C. albicans CG72,1 µg/mL
same,MIC,[1],16 µg/mL
same,MIC,[2],>64 µg/mL
same,MIC,C. albicans SN95,2 µg/mL
same,MIC,[3],>64 µg/mL
same,MIC,[4],>64 µg/mL
same,MIC,[5],16 µg/mL
same,MIC,[6],32 µg/mL
same,MIC,[7],>64 µg/mL
same,MIC,C. glabrata CST78,2 µg/mL
same,MIC,C. glabrata DPL1086,16 µg/mL
same,MIC,[8],2 µg/mL
same,MIC,C. glabrata TGL00054,>64 µg/mL
same,MIC,C. glabrata TGL00056,>64 µg/mL
same,MIC,C. glabrata TGL00065,>64 µg/mL
same,MIC,C. glabrata TGL00091,>64 µg/mL
same,MIC,C. glabrata TGL00107,>64 µg/mL
same,MIC,C. glabrata TGL00253,>64 µg/mL
same,MIC,C. glabrata TGL00256,8 µg/mL
same,MIC,C. glabrata TGL00258,>64 µg/mL
same,MIC,C. glabrata TGL00263,>64 µg/mL
same,MIC,C. glabrata TGL00264,>64 µg/mL
same,MIC,C. glabrata TGL00265,>64 µg/mL
same,MIC,C. glabrata TGL00275,>64 µg/mL
same,MIC,C. glabrata TGL00277,>64 µg/mL
same,MIC,C. glabrata TGL00291,>64 µg/mL
same,MIC,C. glabrata TGL00293,>64 µg/mL
same,MIC,C. glabrata TGL00294,>64 µg/mL
same,MIC,C. albicans ATCC 10231,2 µg/mL
same,MIC,C. albicans BWP17,1 µg/mL
same,MIC,C. albicans SN152,1 µg/mL
same,MIC,C. glabrata ATCC 15126,2 µg/mL
same,MIC,[9],1 µg/mL
same,MIC,[10],1 µg/mL
